Reference: ChEMBL document CHEMBL3232804, “Synthesis and evaluation of new diaryl ether and quinoline hybrids as potential antiplasmodial and antimicrobial agents” (Bioorg Med Chem Lett, 2014)
pIC50: −log10 of the molar value. In brackets after ≈: the same amount, converted by molar mass.

Key:
Staphylococcus aureus = assay: Antimicrobial activity against Staphylococcus aureus ATCC 25923 after 24 hrs by standard broth microdilution method; type: functional
Pseudomonas aeruginosa = assay: Antimicrobial activity against Pseudomonas aeruginosa ATCC BAA-427 after 24 hrs by standard broth microdilution method; type: functional
Escherichia coli = assay: Antimicrobial activity against Escherichia coli ATCC 9637 after 24 hrs by standard broth microdilution method; type: functional
Klebsiella pneumoniae = assay: Antimicrobial activity against Klebsiella pneumoniae ATCC 27736 after 24 hrs by standard broth microdilution method; type: functional
[1] = tested on: Trichophyton mentagrophytes; assay: Antifungal activity against Trichophyton mentagrophytes clinical isolate after 72 to 96 hrs by standard broth microdilution method; type: functional
Cryptococcus neoformans = assay: Antifungal activity against Cryptococcus neoformans clinical isolate after 24 to 48 hrs by standard broth microdilution method; type: functional
Plasmodium falciparum [2] = assay: Antiplasmodial activity against chloroquine-resistant Plasmodium falciparum K1 infected after 72 hrs by Malaria SYBR Green I-staining based fluorescence assay; type: functional, organism-based; details: K1, 72 h
Plasmodium falciparum [3] = assay: Antiplasmodial activity against chloroquine-sensitive Plasmodium falciparum 3D7 infected after 72 hrs by Malaria SYBR Green I-staining based fluorescence assay; type: functional, organism-based; details: 3D7, 72 h
Aspergillus fumigatus = assay: Antifungal activity against Aspergillus fumigatus clinical isolate after 72 to 96 hrs by standard broth microdilution method; type: functional
[4] = Selectivity index, ratio of IC50 for african green monkey Vero cells to IC50 for chloroquine-sensitive Plasmodium falciparum 3D7; type: toxicity, cell-based; details: read-out: Ratio IC50
Sporothrix schenckii = assay: Antifungal activity against Sporothrix schenckii clinical isolate after 72 to 96 hrs by standard broth microdilution method; type: functional
Candida albicans = assay: Antifungal activity against Candida albicans clinical isolate after 24 to 48 hrs by standard broth microdilution method; type: functional
Candida parapsilosis = assay: Antifungal activity against Candida parapsilosis ATCC […] after 72 to 96 hrs by standard broth microdilution method; type: functional; details: Lodderomyces parapsilosis

| Compound | MIC (Staphylococcus aureus; ATCC 25923, 24 h) [µg/mL] | MIC (Pseudomonas aeruginosa; ATCC BAA-427, 24 h) [µg/mL] | MIC (Escherichia coli; ATCC 9637, 24 h) [µg/mL] | MIC (Klebsiella pneumoniae; ATCC 27736, 24 h) [µg/mL] | MIC [1] [µg/mL] | MIC (Cryptococcus neoformans) [µg/mL] | pIC50 (Plasmodium falciparum [2]) | pIC50 (Plasmodium falciparum [3]) | MIC (Aspergillus fumigatus) [µg/mL] | selectivity ratio [4] | MIC (Sporothrix schenckii) [µg/mL] | MIC (Candida albicans) [µg/mL] | MIC (Candida parapsilosis) [µg/mL] | MIC (Staphylococcus aureus) [µg/mL] | MIC (Pseudomonas aeruginosa) [µg/mL] | MIC (Escherichia coli) [µg/mL] | MIC (Klebsiella pneumoniae) [µg/mL] |
| --- | --- | --- | --- | --- | --- | --- | --- | --- | --- | --- | --- | --- | --- | --- | --- | --- | --- |
| CN[C@H](CC(C)C)C(=O)N[C@H]1C(=O)N[C@@H](CC(N)=O)C(=O)N[C@H]2C(=O)N[C@H]3C(=O)N[C@H](C(=O)N[C@H](C(=O)O)c4cc(O)cc(O)c4-c4cc3ccc4O)[C@H](O)c3ccc(c(Cl)c3)Oc3cc2cc(c3O[C@@H]2O[C@H](CO)[C@@H](O)[C@H](O)[C@H]2O[C@H]2C[C@](C)(N)[C@H](O)[C@H](C)O2)Oc2ccc(cc2Cl)[C@H]1O [VANCOMYCIN] | 0.78 (≈ 0.538 µM) | > 50 | > 50 | > 50 |  |  |  |  |  |  |  |  |  |  |  |  |  |
| Clc1ccc(Cl)c(Oc2ccccc2N/C(=N/c2ccccc2)NCCCNc2ccnc3cc(Cl)ccc23)c1 | 3.12 (≈ 5.28 µM) | > 50 | 12.5 (≈ 21.2 µM) | 12.5 (≈ 21.2 µM) | 12.5 (≈ 21.2 µM) | 25 (≈ 42.3 µM) | 6.75 | 7.13 | > 50 | 116 | 12.5 (≈ 21.2 µM) | 12.5 (≈ 21.2 µM) | 50 (≈ 84.6 µM) |  |  |  |  |
| OC(Cn1cncn1)(Cn1cncn1)c1ccc(F)cc1F [FLUCONAZOLE] |  |  |  |  | 1 (≈ 3.27 µM) | 1 (≈ 3.27 µM) |  |  | 2 (≈ 6.53 µM) |  | 2 (≈ 6.53 µM) | 0.5 (≈ 1.63 µM) | 1 (≈ 3.27 µM) |  |  |  |  |
| COC(=O)/C(C)=C/c1ccc(Oc2ccc(N/C(=N/c3ccc(Cl)cc3)NCCNc3ccnc4cc(Cl)ccc34)cc2)cc1 | 6.25 (≈ 9.76 µM) | > 50 | 12.5 (≈ 19.5 µM) | 50 (≈ 78.1 µM) | 12.5 (≈ 19.5 µM) | 6.25 (≈ 9.76 µM) | < 6.10 | 7.37 | 25 (≈ 39 µM) | 69.2 | 6.25 (≈ 9.76 µM) | 6.25 (≈ 9.76 µM) | 25 (≈ 39 µM) |  |  |  |  |
| Clc1cccc(/N=C(\NCCCNc2ccnc3cc(Cl)ccc23)Nc2ccc(Oc3cc(Cl)ccc3Cl)cc2)c1 | 12.5 (≈ 20 µM) | > 50 | 6.25 (≈ 9.99 µM) | > 50 | 6.25 (≈ 9.99 µM) | 6.25 (≈ 9.99 µM) | < 6.10 | 7.12 | 12.5 (≈ 20 µM) | 44.5 | 3.12 (≈ 4.99 µM) | 3.12 (≈ 4.99 µM) | 25 (≈ 40 µM) |  |  |  |  |
| COC(=O)/C(C)=C/c1ccc(Oc2ccccc2N/C(=N/c2cccc(Cl)c2)NCCCNc2ccnc3cc(Cl)ccc23)cc1 | 3.12 (≈ 4.77 µM) | > 50 | 6.25 (≈ 9.55 µM) | 3.12 (≈ 4.77 µM) | 50 (≈ 76.4 µM) | > 50 | 6.53 | 7.69 | > 50 | 368 | 50 (≈ 76.4 µM) | 50 (≈ 76.4 µM) | > 50 |  |  |  |  |
| COC(=O)/C(C)=C/c1ccc(Oc2ccccc2N/C(=N/c2ccccc2)NCCCCNc2ccnc3cc(Cl)ccc23)cc1 | > 50 | > 50 | > 50 | > 50 | > 50 | > 50 | 6.85 | 6.54 | > 50 | 78 | > 50 | > 50 | > 50 |  |  |  |  |
| COc1ccc(Oc2ccc(N/C(=N/c3ccccc3)NCCNc3ccnc4cc(Cl)ccc34)cc2)cc1 | 6.25 (≈ 11.6 µM) | > 50 | 6.25 (≈ 11.6 µM) | 12.5 (≈ 23.2 µM) | 12.5 (≈ 23.2 µM) | 50 (≈ 92.9 µM) | 6.20 | < 6.05 | 25 (≈ 46.5 µM) |  | 12.5 (≈ 23.2 µM) | 25 (≈ 46.5 µM) | 25 (≈ 46.5 µM) |  |  |  |  |
| Clc1ccc(/N=C(\NCCCNc2ccnc3cc(Cl)ccc23)Nc2ccc(Oc3cc(Cl)ccc3Cl)cc2)cc1 | > 50 | > 50 | > 50 | > 50 | 50 (≈ 80 µM) | > 50 | < 6.10 | < 6.10 | > 50 |  | 50 (≈ 80 µM) | > 50 | > 50 |  |  |  |  |
| COC(=O)/C(C)=C/c1ccc(Oc2ccccc2N/C(=N/c2ccccc2)NC2CC2)cc1 | > 50 | > 50 | > 50 | 12.5 (≈ 28.3 µM) | > 50 | > 50 | < 5.92 | < 5.92 | > 50 |  | > 50 | > 50 | > 50 |  |  |  |  |
| COc1ccc(Oc2ccccc2N/C(=N/c2ccc(Cl)cc2)NCCCCNc2ccnc3cc(Cl)ccc23)cc1 | 50 (≈ 83.3 µM) | > 50 | > 50 | > 50 |  | 50 (≈ 83.3 µM) | < 6.10 | 6.91 |  | 62.8 | 25 (≈ 41.6 µM) | 50 (≈ 83.3 µM) |  |  |  |  |  |
| COC(=O)/C(C)=C/c1ccc(Oc2ccccc2N/C(=N/c2cccc(Cl)c2)NCc2ccccc2)cc1 | > 50 | > 50 | > 50 | 12.5 (≈ 23.8 µM) | > 50 | > 50 | < 5.92 | < 6.10 | > 50 |  | > 50 | > 50 | > 50 |  |  |  |  |
| COc1ccc(Oc2ccccc2N/C(=N/c2ccccc2)NCCCNc2ccnc3cc(Cl)ccc23)cc1 | 50 (≈ 90.6 µM) | > 50 | 50 (≈ 90.6 µM) | > 50 | > 50 | > 50 |  | 6.92 | 50 (≈ 90.6 µM) |  | 50 (≈ 90.6 µM) | 50 (≈ 90.6 µM) | 50 (≈ 90.6 µM) |  |  |  |  |
| COc1ccc(Oc2ccccc2N/C(=N/c2ccccc2)NCCCCNc2ccnc3cc(Cl)ccc23)cc1 | > 50 | > 50 | > 50 | > 50 | > 50 | > 50 | < 6.00 | 6.96 | 50 (≈ 88.3 µM) |  | 50 (≈ 88.3 µM) | > 50 | > 50 |  |  |  |  |
| COC(=O)/C(C)=C/c1ccc(Oc2ccccc2N/C(=N/c2ccccc2)NCc2ccccc2)cc1 | 25 (≈ 50.9 µM) | > 50 | > 50 | 12.5 (≈ 25.4 µM) | > 50 | > 50 | < 5.92 | < 5.92 | > 50 |  | > 50 | > 50 | > 50 |  |  |  |  |
| COc1ccc(Oc2ccccc2N/C(=N/c2ccccc2)NCCNc2ccnc3cc(Cl)ccc23)cc1 | 50 (≈ 92.9 µM) | > 50 | > 50 | > 50 | > 50 | > 50 | 6.71 | 7.38 | > 50 |  | 50 (≈ 92.9 µM) | > 50 | > 50 |  |  |  |  |
| C[C@@H]1[C@H](O)[C@@H](C)/C=C/C=C/C=C/C=C/C=C/C=C/C=C/[C@H](O[C@@H]2O[C@H](C)[C@@H](O)[C@H](N)[C@@H]2O)C[C@@H]2O[C@](O)(C[C@@H](O)C[C@@H](O)[C@H](O)CC[C@@H](O)C[C@@H](O)CC(=O)O[C@H]1C)C[C@H](O)[C@H]2C(=O)O [AMPHOTERICIN B] |  |  |  |  | 0.12 (≈ 0.13 µM) | 0.06 (≈ 0.0649 µM) |  |  | 0.5 (≈ 0.541 µM) |  | 0.12 (≈ 0.13 µM) | 0.12 (≈ 0.13 µM) | 0.12 (≈ 0.13 µM) |  |  |  |  |
| COc1cccc(OC)c1C(=O)N[C@@H]1C(=O)N2[C@@H]1SC(C)(C)[C@@H]2C(=O)O [METHICILLIN] | 1.56 (≈ 4.1 µM) | > 50 | > 50 | > 50 |  |  |  |  |  |  |  |  |  |  |  |  |  |
| COc1ccc(Oc2ccccc2N/C(=N/c2ccc(Cl)cc2)NCCCNc2ccnc3cc(Cl)ccc23)cc1 | > 50 | 50 (≈ 85.2 µM) | > 50 | 50 (≈ 85.2 µM) |  | 50 (≈ 85.2 µM) | < 6.10 | 6.62 |  | 123 | 25 (≈ 42.6 µM) | > 50 |  |  |  |  |  |
| COc1ccc(Oc2ccccc2N/C(=N/c2ccc(Cl)cc2)NCCNc2ccnc3cc(Cl)ccc23)cc1 | 12.5 (≈ 21.8 µM) | > 50 | 50 (≈ 87.3 µM) | > 50 |  | 25 (≈ 43.7 µM) | 6.48 | 6.99 |  | 172 | 12.5 (≈ 21.8 µM) | 50 (≈ 87.3 µM) |  |  |  |  |  |
| COC(=O)/C(C)=C/c1ccc(Oc2ccccc2N/C(=N/c2ccccc2)NCCNc2ccnc3cc(Cl)ccc23)cc1 | > 50 | > 50 | > 50 | > 50 | > 50 | > 50 | 6.77 | < 6.10 | > 50 |  | > 50 | > 50 | > 50 |  |  |  |  |
| CCn1cc(C(=O)O)c(=O)c2cc(F)c(N3CCNCC3)cc21 [NORFLOXACIN] | 0.78 (≈ 2.44 µM) | 0.3 (≈ 0.939 µM) | 0.36 (≈ 1.13 µM) | 0.36 (≈ 1.13 µM) |  |  |  |  |  |  |  |  |  |  |  |  |  |
| COc1ccc(Oc2ccccc2N/C(=N/c2cccc(Cl)c2)NCCCNc2ccnc3cc(Cl)ccc23)cc1 | 3.12 (≈ 5.32 µM) | > 50 | 3.12 (≈ 5.32 µM) | 25 (≈ 42.6 µM) | 6.25 (≈ 10.7 µM) | 50 (≈ 85.2 µM) |  | 6.43 | > 50 | 10.4 | 6.25 (≈ 10.7 µM) | 6.25 (≈ 10.7 µM) | 50 (≈ 85.2 µM) |  |  |  |  |
| COC(=O)/C(C)=C/c1ccc(Oc2ccccc2N/C(=N/c2cccc(Cl)c2)NC2CC2)cc1 | 25 (≈ 52.5 µM) | > 50 | > 50 | 12.5 (≈ 26.3 µM) | 25 (≈ 52.5 µM) | > 50 | < 5.92 | < 5.92 | > 50 |  | > 50 | 50 (≈ 105 µM) | > 50 |  |  |  |  |
| GENTAMICIN SULFATE |  |  |  |  |  |  |  |  |  |  |  |  |  | 1.56 | 0.39 | 1.56 | 1.56 |
